18 molecules from patent US20250197399A1, “COMPOUNDS, COMPOSITIONS, AND METHODS” (Tenvie Therapeutics, Inc., priority 2022, published 2025) can be followed below.

Like-named read-outs stand apart in the source and are kept apart here. Some results are limits rather than exact numbers.

For this assay, the system named is NLRP3. Nature of the assay: IL-1β secretion assay in PMA-differentiated, LPS/nigericin-stimulated THP-1 cells (ELISA). Format: cell-based. To be noted: 25 ng/mL LPS then nigericin, IL-1β in supernatant. Here is the method:
Compounds as provided herein were tested in the following assay. Cell culture medium employed contained RPMI 1640 medium (89%), FBS (10%), Pen/Strep (1%), and 2-mercaptoethanol (0.05 mM). Freezing medium was made up of 90% FBS and 10% DMSO. THP-1 cells were removed from the liquid nitrogen and placed into a 37° C. water bath to thaw, until signs of ice dissipated. The cells were then added to 9 mL of warm cell culture medium and centrifuged for 5 minutes at 1000 rpm. The supernatant was discarded, and the cells were resuspended in new cell culture medium. THP-1 cells were then split and cultured in the cell culture medium, being passaged every 2-3 days with the cell density will be maintained between 5×10^5 and 1.5×10^6 viable cells/mL.
PMA was dissolved in DMSO to make a stock solution at 5 mg/ml and stored in 10 μl aliquots at −20° C. for single use. PMA is added to normal growth medium. LPS was diluted with 1 mL of water solution to provide a 1 mg/mL stock solution and stored in 15 μL aliquots at −20° C. for single use. Nigericin is diluted in ice cold 100% ethanol to 5 mg/ml (6.7 mM) and stored in 75 μL aliquots at −20° C. for single use. Serum-free media contains RPMI 1640 medium (99%), Pen/Strep (1%), and 2-mercaptoethanol (0.05 mM). The two control conditions used to qualify and normalize test compound dose-response curves were as follows: High Control=25 ng/mL LPS, […], 0.5% DMSO, Low Control=25 ng/mL, LPS, 0.5% DMSO.
THP-1 cells were diluted to provide a suspension at a concentration of 1.0×10^6 cells/mL with the total volume of suspension required to enable the desired number of assay plates. The growth media was supplemented with PMA (5 ng/mL final concentration) and the cells were incubated at 37° C. under a humidified atmosphere of 5% CO2 for 40 h.
All media was carefully aspirated from each culture flask. The cells were washed carefully with 1×DPBS. The cells were then briefly digested with trypsin LE for 5 minutes at 23° C. and immediately resuspended in cell growth media. After resuspension, the cells were centrifuged at 1000 rpm for 3 minutes and the supernatant was discarded. The cells were resuspended in DPBS and once again centrifuged at 1000 rpm for 5 minutes. The supernatant was discarded and the cell pellet was resuspended in serum-free media supplemented with LPS (25 ng/mL final concentration) to enable the distribution of 30K THP-1 cells within 45 μL of media into each well of 384-well PDL-coated plates. The 384-well plates were then incubated at 37° C. under a humidified atmosphere of 5% CO2 for 2 h. Following this period, test compounds were dispensed by Tecan across the desired concentration range with all wells normalized to a final 0.5% DMSO concentration. The plates were then then incubated at 37° C. under a humidified atmosphere of 5% CO2 for 1 h. Following this period, 5 μL of the 5 mg/mL nigericin stock solution was added to each of the appropriate wells and plates were centrifuged at 1000 rpm for 30 seconds. The plates were the immediately reintroduced to the incubator at 37° C. under a humidified atmosphere of 5% CO2 for 2 h. After this time, 35 μL/well of supernatant was collected and transferred into v-bottom plate and centrifuged at 1000 rpm for 1 minute. These supernatant aliquots were analyzed using an IL-Iβ detection kit as described below. If needed, the test samples could be snap frozen and stored at −80° C. until analyzed.
To prepare each ELISA plate, capture antibody (mAb Mt175) was diluted with PBS to a final concentration of […] and then 20 μL of this solution was added to each well of the ELISA plate. Each plate was allowed to incubate overnight at 4° C. The next day, the capture antibody solution was removed and discarded. Each ELISA plate was washed 4 times with PBST followed by the addition of 25 µL/well of blocking buffer (Licor-927-40010) supplemented with 0.1% Tween 20. Each ELISA plate was then allowed to incubate for 1 hour at 23° C. […]
Background: An ELISA detects its analyte on a solid surface through an enzyme-linked reagent.

The mark [1] stands for this setting: THP-1 cells, read-out: Activity.
Where [2] appears, read: THP-1 cells, read-out: Activity (IC50 class).
[3] abbreviates: Homo sapiens, THP-1, THP-1 cells, read-out: Activity.
[4] abbreviates: Homo sapiens, THP-1, THP-1 cells, read-out: Activity (IC50 class).

Consider `Cc1cnc(NC(=O)CN2CC3(CC3(F)F)c3c(ccc(Br)c3F)C2=O)nc1` (single isomer, unassigned) [Example 33, N-(5-methylpyrimidin-2-yl)-2-[6-bromo-1′,1′,5-trifluoro-1-oxospiro[3H-isoquinoline-4,2′-cyclopropane]-2-yl]acetamide], for which the IC50 by setting is: under setting [1], 55 nM; under setting [2], less than 1000 nM.

For `O=C(CN1CC2(CC2)c2cc(Br)ccc2C1=O)NC1CC(O)(C2CC2)C1` (single isomer, unassigned) [Example 56, 2-(6-bromo-1-oxospiro[3H-isoquinoline-4,1′-cyclopropane]-2-yl)-N-(3-cyclopropyl-3-hydroxycyclobutyl)acetamide], the IC50 is, setting by setting: under setting [1], 363 nM; under setting [2], less than 1000 nM.

Consider `O=C(CN1C[C@]2(C[C@H]2F)c2cc(C3(F)CC3)ccc2C1=O)Nc1ncc(C(F)(F)F)cn1` [Example 1, 2-[(2′R,4S)-2′-fluoro-6-(1-fluorocyclopropyl)-1-oxospiro[3H-isoquinoline-4,1′-cyclopropane]-2-yl]-N-(5-(trifluoromethyl)pyrimidin-2-yl)acetamide], for which the IC50 is 24 nM under setting [3] and less than 1000 nM under setting [4].

Turning to `Cc1cnc(NC(=O)CN2C[C@]3(C[C@H]3F)c3c(ccc(Cl)c3F)C2=O)nc1` (single isomer, unassigned) [Example 44, 2-[(2′s,4r)-6-chloro-2′,5-difluoro-1-oxospiro[3H-isoquinoline-4,1′-cyclopropane]-2-yl]-N-(5-methylpyrimidin-2-yl)acetamide], the IC50 runs as follows: under setting [3], 113 nM; under setting [4], less than 1000 nM.

`O=C(CN1C[C@]2(C[C@H]2F)c2cc(C(F)(F)F)ccc2C1=O)Nc1ncc2cn[nH]c2n1` (single isomer, unassigned) [Example 48, 2-[(2′s,4r)-2′-fluoro-1-oxo-6-(trifluoromethyl)spiro[3H-isoquinoline-4,1′-cyclopropane]-2-yl]-N-(1H-pyrazolo[3,4-d]pyrimidin-6-yl)acetamide]: the IC50 by setting is: under setting [1], 24 nM; under setting [2], less than 1000 nM.

With `COC(=O)C12CC(NC(=O)CN3CC4(CC4)c4cc(Br)ccc4C3=O)(C1)C2` [Example 60, methyl 3-[[2-(6-bromo-1-oxospiro[3H-isoquinoline-4,1′-cyclopropane]-2-yl)acetyl]amino]bicyclo[1.1.1]pentane-1-carboxylate], the IC50 is 216 nM under setting [3] and less than 1000 nM under setting [4].

Consider `O=C(CN1CC2(CC2(F)F)c2c(ccc(C(F)(F)F)c2F)C1=O)Nc1ncc(Cl)cn1` (single isomer, unassigned) [Example 15, N-(5-chloropyrimidin-2-yl)-2-[1′,1′,5-trifluoro-6-(trifluoromethyl)-1-oxospiro[3H-isoquinoline-4,2′-cyclopropane]-2-yl]acetamide], for which the IC50 runs as follows: under setting [1], 63 nM; under setting [2], less than 1000 nM.

With `O=C(CN1C[C@@]2(C[C@@H]2F)c2c(ccc(C(F)(F)F)c2F)C1=O)Nc1ncc(Cl)cn1` (single isomer, unassigned) [Example 12, 2-[(2′s,4r)-2′,5-difluoro-1-oxo-6-(trifluoromethyl)spiro[3H-isoquinoline-4,1′-cyclopropane]-2-yl]-N-(5-chloropyrimidin-2-yl)acetamide], the IC50 is, setting by setting: under setting [4], less than 1000 nM; under setting [1], 54 nM.

For `O=C(CN1CC2(CC2(F)F)c2c(ccc(C3CC3)c2F)C1=O)Nc1ncc(Cl)cn1` (single isomer, unassigned) [Example 34, N-(5-chloropyrimidin-2-yl)-2-[6-cyclopropyl-1′,1′,5-trifluoro-1-oxospiro[3H-isoquinoline-4,2′-cyclopropane]-2-yl]acetamide], the IC50 reads like this: under setting [4], 1000 to 10000 nM; under setting [1], 15600 nM.

`O=C(CN1CC2(CC2(F)F)c2cc(C3CC3)ccc2C1=O)Nc1ncc(F)cn1` (single isomer, unassigned) [Example 29, N-(5-fluoropyrimidin-2-yl)-2-[6-cyclopropyl-1′,1′-difluoro-1-oxospiro[3H-isoquinoline-4,2′-cyclopropane]-2-yl]acetamide]: the IC50 was 86 nM under setting [1] and less than 1000 nM under setting [2].

As to `C[C@]1(O)C[C@@H](NC(=O)CN2CC3(CC3(F)F)c3cc(C4(F)CC4)ccc3C2=O)C1` (single isomer, unassigned) [Example 22, N-(3-cis-hydroxy-3-methylcyclobutyl)-2-[1′,1′-difluoro-6-(1-fluorocyclopropyl)-1-oxospiro[3H-isoquinoline-4,2′-cyclopropane]-2-yl]acetamide], under setting [1], the IC50 is 8340 nM.

Regarding `O=C(CN1CC2(CC2(F)F)c2cc(C3(F)CC3)ccc2C1=O)Nc1ncc(F)cn1` (single isomer, unassigned) [Example 26, N-(5-fluoropyrimidin-2-yl)-2-[1′,1′-difluoro-6-(1-fluorocyclopropyl)-1-oxospiro[3H-isoquinoline-4,2′-cyclopropane]-2-yl]acetamide], the IC50 under setting [4] is 1000 to 10000 nM and the IC50 under setting [1] stood at 5880 nM.

Regarding `N#Cc1cnc(NC(=O)CN2C[C@]3(C[C@H]3F)c3cc(C4(F)CC4)ccc3C2=O)nc1` [Example 3, 2-[(2′R,4S)-2′-fluoro-6-(1-fluorocyclopropyl)-1-oxospiro[3H-isoquinoline-4,1′-cyclopropane]-2-yl]-N-(5-cyanopyrimidin-2-yl)acetamide], the IC50 was 17 nM under setting [3] and less than 1000 nM under setting [4].

Regarding `C[C@]1(O)C[C@@H](NC(=O)CN2CC3(CC3(F)F)c3cc(Br)ccc3C2=O)C1` (single isomer, unassigned) [Example 20, N-(3-cis-hydroxy-3-methylcyclobutyl)-2-[6-bromo-1′,1′-difluoro-1-oxospiro[3H-isoquinoline-4,2′-cyclopropane]-2-yl]acetamide], the IC50 is 12900 nM under setting [1] and more than 10000 nM under setting [2].

Take `O=C(CN1CC2(CC2)c2cc(C(F)(F)F)ccc2C1=O)Nc1ncc2cn[nH]c2n1` [Example 51, 2-[1-oxo-6-(trifluoromethyl)spiro[3H-isoquinoline-4,1′-cyclopropane]-2-yl]-N-(1H-pyrazolo[3,4-d]pyrimidin-6-yl)acetamide]: the IC50 was 181 nM under setting [3] and less than 1000 nM under setting [4].

For the molecule `Cc1cnc(NC(=O)CN2CC3(CC3(F)F)c3c(ccc(C4CC4)c3F)C2=O)nc1` (single isomer, unassigned) [Example 36, N-(5-methylpyrimidin-2-yl)-2-[6-cyclopropyl-1′,1′,5-trifluoro-1-oxospiro[3H-isoquinoline-4,2′-cyclopropane]-2-yl]acetamide], the IC50 under setting [1] turned out to be 22400 nM and the IC50 under setting [2] is more than 10000 nM.

Regarding `C[C@]1(O)C[C@@H](NC(=O)CN2CC3(CC3(F)F)c3cc(C(F)(F)F)ccc3C2=O)C1` (single isomer, unassigned) [Example 53, 2-[1′,1′-difluoro-1-oxo-6-(trifluoromethyl)spiro[3H-isoquinoline-4,2′-cyclopropane]-2-yl]-N-(3-cis-hydroxy-3-methylcyclobutyl)acetamide], the IC50 is, setting by setting: under setting [1], 472 nM; under setting [2], less than 1000 nM.

`O=C(CN1CC2(CC2(F)F)c2cc(C(F)(F)F)ccc2C1=O)Nc1ncc(Cl)cn1` (single isomer, unassigned) [Example 39, N-(5-chloropyrimidin-2-yl)-2-[1′,1′-difluoro-6-(trifluoromethyl)-1-oxospiro[3H-isoquinoline-4,2′-cyclopropane]-2-yl]acetamide]: the IC50 reads like this: under setting [1], 6960 nM; under setting [2], 1000 to 10000 nM.
